Measurements taken from patent EP0052361A1, “Novel 16-membered macrolide compounds” (SANRAKU-OCEAN CO., LTD., priority 1980, dated 1982).
Converted amounts (≈) assume the structure as drawn. Read-outs that look alike come from different tables or passages of the source.

Legend:
[1] = test system: Bacillus subtilis NRRL B-558; test: MIC by tube dilution method in brain heart infusion broth; type: cell-based
Experimental: (§1) The minimum growth inhibitory concentrations (MIC) of the compounds (I) against various microorganisms were measured by a tube dilution method in a brain heart infusion broth (pH 7.5) as a medium.

[2] = test system: Klebsiella pneumoniae PCI602; test: as above; type: cell-based
Experimental: as §1

[3] = test system: Staphylococcus aureus 209P; test: as above; type: cell-based
Experimental: as §1

[4] = test system: Staphylococcus aureus MS9861; test: as above; type: cell-based
Experimental: as §1

[5] = test system: Corynebacterium bovis 1810; test: as above; type: cell-based
Experimental: as §1

[6] = test system: Escherichia coli NIHJ; test: as above; type: cell-based
Experimental: as §1

[7] = test system: Mycoplasma gallisepticum KP-13; test: as above; type: cell-based; conditions: Mycoplasmoides gallisepticum
Experimental: as §1

[8] = test system: Sartina lutea PCI 1001; test: as above; type: cell-based
Experimental: as §1

[9] = test system: Shigella dysenteriae JS 11910; test: as above; type: cell-based; conditions: JS11910, pH 7.5, read-out: Minimum growth inhibitory concentration
Experimental: as §1

[10] = test system: Staphylococcus aureus MS10225; test: as above; type: cell-based
Experimental: as §1

[11] = Stability on standing at room temperature; type: physicochemical; conditions: left to stand at room temperature for one month
From the text: Stable even when left to stand at room temperature for one month.

[12] = design: species or system mice; conditions: mouse, in vivo, po
Experimental: • (2) Concentration in the blood • (2-1) The concentration of the antibiotic YT-3927 of formula (I-a) in the blood was measured by bioassay with […] lutea using mice. […] Then, periodically, the concentration of the antibiotic YT-3927 in the blood was measured. The peak of the blood concentration was noted 1.5 to 2 hours after the administration, and at the peak, the concentration was […]. In contrast, in the same experiment with tylosin, the peak was noted 1.5 to 2 hours later, but the concentration was less than one-fifth of that of the antibiotic YT-3927. • (2-2) The concentration of each of the antibiotic YT-3927 derivatives of formula (I-b) in the blood was measured by bioassay with […] lutea using mice. […] The concentration of the derivative (I-b) in the blood was periodically measured. The concentration of each of the compounds (I-b) 2 hours after the administration is shown in Table 3. [formula] • (3) Toxicity

[13] = Bacillus subtilis, NRRLB558, pH 7.5, read-out: Antimicrobial activity (MIC) Bacillus subtilis NRRL B558
[14] = Klebsiella pneumoniae, PCI602, pH 7.5, read-out: Antimicrobial activity (MIC) Klebsiella pneumonae PCI602
[15] = Staphylococcus aureus, 209P, pH 7.5, read-out: Antimicrobial activity (MIC) Staphylococcus aureus 209P
[16] = MS9861, pH 7.5, read-out: Antimicrobial activity (MIC) Staphylococcus aureus MS9861

**Q.** With `CCC1OC(=O)CC(O)C(C)C(OC2OC(C)C(OC3CC(C)(OC(C)=O)C(OC(=O)CSc4ccncc4)C(C)O3)C(N(C)C)C2O)C(CC=O)CC(C)C(=O)C=CC(C)=CC1C` (centres unmarked) as the compound, how does the MIC [1, 13] read?
**A.** < 0.2 µg/mL

**Q.** And the MIC [2, 14]?
**A.** 6.3 µg/mL (≈ 6.85 µM)

**Q.** What about the MIC [3, 15] of the same compound?
**A.** < 0.2 µg/mL

**Q.** What about the MIC [4, 16] of the same compound?
**A.** 0.8 µg/mL (≈ 0.87 µM)

**Q.** Which MIC [1, 13] does the source give for `CCC1OC(=O)CC(O)C(C)C(OC2OC(C)C(OC3CC(C)(O)C(OC(=O)Cc4cccnc4)C(C)O3)C(N(C)C)C2O)C(CC=O)CC(C)C(=O)C=CC(C)=CC1C` (centres unmarked) here?
**A.** < 0.2 µg/mL

**Q.** What about the MIC [2, 14] of the same compound?
**A.** 1.6 µg/mL (≈ 1.89 µM)

**Q.** And the MIC [3, 15]?
**A.** < 0.2 µg/mL

**Q.** And the MIC [4, 16]?
**A.** 0.8 µg/mL (≈ 0.947 µM)

**Q.** What does the source list for `CCC1OC(=O)CC(O)C(C)C(OC2OC(C)C(OC3CC(C)(O)C(OC4CCCCO4)C(C)O3)C(N(C)C)C2O)C(CC=O)CC(C)C(=O)/C=C/C(C)=C/C1C` (centres unmarked)?
**A.** MIC [1, 13]: 0.4 µg/mL (≈ 0.494 µM); MIC [2, 14]: 3.1 µg/mL (≈ 3.83 µM); MIC [3, 15]: 1.6 µg/mL (≈ 1.98 µM); MIC [4, 16]: 3.1 µg/mL (≈ 3.83 µM)

**Q.** Which results are given for `CCC1OC(=O)CC(O)C(C)C(OC2OC(C)C(OC3CC(C)(O)C(O)C(C)O3)C(N(C)C)C2O)C(CC=O)CC(C)C(=O)C=CC(C)=CC1C` (centres unmarked) [Antibiotic YT-3927, antibiotic YT-3927]?
**A.** MIC [1, 13]: 0.4 µg/mL (≈ 0.551 µM); MIC ([1]; Bacillus subtilis, NRRLB558, pH 7.5, read-out: Minimum growth inhibitory concentration): 0.39 µg/mL (≈ 0.537 µM); MIC ([5]; Corynebacterium bovis, 1810, pH 7.5, read-out: Minimum growth inhibitory concentration): 0.39 µg/mL (≈ 0.537 µM); MIC ([6]; Escherichia coli, pH 7.5, read-out: Minimum growth inhibitory concentration): 25 µg/mL (≈ 34.4 µM); MIC [2, 14]: 3.1 µg/mL (≈ 4.27 µM); MIC ([2]; Klebsiella pneumoniae, PCI602, pH 7.5, read-out: Minimum growth inhibitory concentration): 3.12 µg/mL (≈ 4.3 µM); MIC ([7]; KP13, pH 7.5, read-out: Minimum growth inhibitory concentration): 0.02 µg/mL (≈ 0.0276 µM); MIC ([8]; pH 7.5, read-out: Minimum growth inhibitory concentration): < 0.2 µg/mL; MIC [9]: 1.56 µg/mL (≈ 2.15 µM); MIC [3, 15]: 0.4 µg/mL (≈ 0.551 µM); MIC ([3]; Staphylococcus aureus, 209P, pH 7.5, read-out: Minimum growth inhibitory concentration): 0.39 µg/mL (≈ 0.537 µM); MIC ([10]; Staphylococcus aureus, MS10225, pH 7.5, read-out: Minimum growth inhibitory concentration): 0.78 µg/mL (≈ 1.07 µM); MIC [4, 16]: 3.1 µg/mL (≈ 4.27 µM); Stability [11]: Stable

**Q.** Which MIC [1, 13] does the source give for `CCC1OC(=O)CC(OC(C)=O)C(C)C(OC2OC(C)C(OC3CC(C)(OC(C)=O)C(OC(C)=O)C(C)O3)C(N(C)C)C2O)C(CC=O)CC(C)C(=O)C=CC(C)=CC1C` (centres unmarked) [R1=COCH3; R2=COCH3; YR3=COCH3, 3,3",4"-triacetyl YT-3927] here?
**A.** 0.4 µg/mL (≈ 0.469 µM)

**Q.** What about the MIC [2, 14] of the same compound?
**A.** 100 µg/mL (≈ 117 µM)

**Q.** What about the MIC [3, 15] of the same compound?
**A.** 1.6 µg/mL (≈ 1.88 µM)

**Q.** What about the MIC [4, 16] of the same compound?
**A.** 3.1 µg/mL (≈ 3.64 µM)

**Q.** With `CCC1OC(=O)CC(OC(C)=O)C(C)C(OC2OC(C)C(OC3CC(C)(O)C(OC(=O)CC(C)C)C(C)O3)C(N(C)C)C2O)C(CC=O)CC(C)C(=O)C=CC(C)=CC1C` (centres unmarked) [R1=COCH3; R2=H; YR3=COCH2CH(CH3)2, 3-acetyl-4"-isovaleryl YT-3927] as the compound, how does the MIC [1, 13] read?
**A.** 0.8 µg/mL (≈ 0.939 µM)

**Q.** What about the MIC [2, 14] of the same compound?
**A.** 25 µg/mL (≈ 29.3 µM)

**Q.** And the MIC [3, 15]?
**A.** 0.4 µg/mL (≈ 0.469 µM)

**Q.** What about the MIC [4, 16] of the same compound?
**A.** 6.3 µg/mL (≈ 7.39 µM)

**Q.** Which MIC [1, 13] does the source give for `CCC1OC(=O)CC(O)C(C)C(OC2OC(C)C(OC3CC(C)(OC(C)=O)C(OC(=O)CC(C)C)C(C)O3)C(N(C)C)C2O)C(CC=O)CC(C)C(=O)C=CC(C)=CC1C` (centres unmarked) [R1=H; R2=COCH3; YR3=COCH2CH(CH3)2] here?
**A.** 0.8 µg/mL (≈ 0.939 µM)

**Q.** And the MIC [2, 14]?
**A.** 25 µg/mL (≈ 29.3 µM)

**Q.** What about the MIC [3, 15] of the same compound?
**A.** 0.8 µg/mL (≈ 0.939 µM)

**Q.** What about the MIC [4, 16] of the same compound?
**A.** 1.6 µg/mL (≈ 1.88 µM)

**Q.** What does the source list for `CCC1OC(=O)CC(O)C(C)C(OC2OC(C)C(OC3CC(C)(O)C(OC(=O)CC(C)C)C(C)O3)C(N(C)C)C2O)C(CC=O)CC(C)C(=O)C=CC(C)=CC1C` (centres unmarked) [R1=H; R2=H; YR3=COCH2CH(CH3)2, 4"-isovaleryl YT-3927]?
**A.** MIC [1, 13]: 0.4 µg/mL (≈ 0.494 µM); MIC [2, 14]: 6.3 µg/mL (≈ 7.78 µM); MIC [3, 15]: 0.4 µg/mL (≈ 0.494 µM); MIC [4, 16]: 1.6 µg/mL (≈ 1.98 µM)

**Q.** For `CC[C@H]1OC(=O)C[C@@H](O)[C@H](C)[C@@H](O[C@@H]2O[C@H](C)[C@@H](O[C@H]3C[C@@](C)(O)[C@@H](O)[C@H](C)O3)[C@H](N(C)C)[C@H]2O)[C@@H](CC=O)C[C@@H](C)C(=O)/C=C/C(C)=C/[C@@H]1CO[C@@H]1O[C@H](C)[C@@H](O)[C@@H](OC)[C@H]1OC` [Tylosin, reference compound], which MIC ([1]; Bacillus subtilis, NRRLB558, Table 2-2, brain heart infusion broth pH 7.5, read-out: Antimicrobial activity (MIC) Bacillus subtilis NRRL B558) is on record?
**A.** 0.8 µg/mL (≈ 0.873 µM)

**Q.** What about the MIC ([1]; NRRLB558, Bacillus subtilis NRRL B-558, brain heart infusion broth pH 7.5, Table 2-1, read-out: Minimum growth inhibitory concentration) of the same compound?
**A.** 0.78 µg/mL (≈ 0.851 µM)

**Q.** And the MIC ([5]; Corynebacterium bovis 1810, brain heart infusion broth pH 7.5, read-out: Minimum growth inhibitory concentration)?
**A.** < 0.2 µg/mL

**Q.** And the MIC ([6]; Escherichia coli NIHJ, brain heart infusion broth pH 7.5, read-out: Minimum growth inhibitory concentration)?
**A.** 100 µg/mL (≈ 109 µM)

**Q.** What about the MIC ([2]; Klebsiella pneumoniae PCI602, brain heart infusion broth pH 7.5, Table 2-1, read-out: Minimum growth inhibitory concentration) of the same compound?
**A.** 25 µg/mL (≈ 27.3 µM)

**Q.** And the MIC ([2]; Klebsiella pneumoniae, PCI602, Table 2-2, brain heart infusion broth pH 7.5, read-out: Antimicrobial activity (MIC) Klebsiella pneumonae PCI602)?
**A.** 25 µg/mL (≈ 27.3 µM)

**Q.** What about the MIC ([7]; KP13, Mycoplasma gallisepticum KP-13, brain heart infusion broth pH 7.5, read-out: Minimum growth inhibitory concentration) of the same compound?
**A.** 0.02 µg/mL (≈ 0.0218 µM)

**Q.** What about the MIC ([8]; Sartina lutea PCI 1001, brain heart infusion broth pH 7.5, read-out: Minimum growth inhibitory concentration) of the same compound?
**A.** < 0.2 µg/mL

**Q.** And the MIC [9]?
**A.** 25 µg/mL (≈ 27.3 µM)

**Q.** What about the MIC ([3]; Staphylococcus aureus 209P, brain heart infusion broth pH 7.5, Table 2-1, read-out: Minimum growth inhibitory concentration) of the same compound?
**A.** 0.78 µg/mL (≈ 0.851 µM)

**Q.** What about the MIC ([3]; Staphylococcus aureus, 209P, Table 2-2, brain heart infusion broth pH 7.5, read-out: Antimicrobial activity (MIC) Staphylococcus aureus 209P) of the same compound?
**A.** 0.8 µg/mL (≈ 0.873 µM)

**Q.** And the MIC ([10]; Staphylococcus aureus MS10225 (resistant to tylosin), brain heart infusion broth pH 7.5, read-out: Minimum growth inhibitory concentration)?
**A.** 3.12 µg/mL (≈ 3.41 µM)

**Q.** What about the MIC ([4]; MS9861, Table 2-2, brain heart infusion broth pH 7.5, read-out: Antimicrobial activity (MIC) Staphylococcus aureus MS9861) of the same compound?
**A.** 6.3 µg/mL (≈ 6.88 µM)

**Q.** And the “peak concentration in the blood as a fraction of that of the antibiotic YT-3927” value [12]?
**A.** less than one-fifth
